Laboratory results reported in patent publication US12291502B2, “Topoisomerase II-alpha inhibitors and methods of treating cancer using the same” (The Regents of the University of Colorado, priority 2019, dated 2025).
Several values for one entry are separate records, joined by “and”; a condition that tells them apart may be missing. Equal values may be shown once. Read-outs that look alike come from different tables or passages of the source.

Assays:
[1] = target: T1, Human TOP2A (Homo sapiens, UniProt P11388); test: TOP2A DNA decatenation assay (kDNA, agarose gel); type: biochemical; conditions: for inhibition at 30 µM: 1 h, decatenation, 30 μM fixed concentration, read-out: % Inhibition TOP2A (30 μM); for IC50: decatenation dose response
T1 construct: purchased TopoGEN (Buena Vista, CO)
T1 sequence (P11388 whole entry): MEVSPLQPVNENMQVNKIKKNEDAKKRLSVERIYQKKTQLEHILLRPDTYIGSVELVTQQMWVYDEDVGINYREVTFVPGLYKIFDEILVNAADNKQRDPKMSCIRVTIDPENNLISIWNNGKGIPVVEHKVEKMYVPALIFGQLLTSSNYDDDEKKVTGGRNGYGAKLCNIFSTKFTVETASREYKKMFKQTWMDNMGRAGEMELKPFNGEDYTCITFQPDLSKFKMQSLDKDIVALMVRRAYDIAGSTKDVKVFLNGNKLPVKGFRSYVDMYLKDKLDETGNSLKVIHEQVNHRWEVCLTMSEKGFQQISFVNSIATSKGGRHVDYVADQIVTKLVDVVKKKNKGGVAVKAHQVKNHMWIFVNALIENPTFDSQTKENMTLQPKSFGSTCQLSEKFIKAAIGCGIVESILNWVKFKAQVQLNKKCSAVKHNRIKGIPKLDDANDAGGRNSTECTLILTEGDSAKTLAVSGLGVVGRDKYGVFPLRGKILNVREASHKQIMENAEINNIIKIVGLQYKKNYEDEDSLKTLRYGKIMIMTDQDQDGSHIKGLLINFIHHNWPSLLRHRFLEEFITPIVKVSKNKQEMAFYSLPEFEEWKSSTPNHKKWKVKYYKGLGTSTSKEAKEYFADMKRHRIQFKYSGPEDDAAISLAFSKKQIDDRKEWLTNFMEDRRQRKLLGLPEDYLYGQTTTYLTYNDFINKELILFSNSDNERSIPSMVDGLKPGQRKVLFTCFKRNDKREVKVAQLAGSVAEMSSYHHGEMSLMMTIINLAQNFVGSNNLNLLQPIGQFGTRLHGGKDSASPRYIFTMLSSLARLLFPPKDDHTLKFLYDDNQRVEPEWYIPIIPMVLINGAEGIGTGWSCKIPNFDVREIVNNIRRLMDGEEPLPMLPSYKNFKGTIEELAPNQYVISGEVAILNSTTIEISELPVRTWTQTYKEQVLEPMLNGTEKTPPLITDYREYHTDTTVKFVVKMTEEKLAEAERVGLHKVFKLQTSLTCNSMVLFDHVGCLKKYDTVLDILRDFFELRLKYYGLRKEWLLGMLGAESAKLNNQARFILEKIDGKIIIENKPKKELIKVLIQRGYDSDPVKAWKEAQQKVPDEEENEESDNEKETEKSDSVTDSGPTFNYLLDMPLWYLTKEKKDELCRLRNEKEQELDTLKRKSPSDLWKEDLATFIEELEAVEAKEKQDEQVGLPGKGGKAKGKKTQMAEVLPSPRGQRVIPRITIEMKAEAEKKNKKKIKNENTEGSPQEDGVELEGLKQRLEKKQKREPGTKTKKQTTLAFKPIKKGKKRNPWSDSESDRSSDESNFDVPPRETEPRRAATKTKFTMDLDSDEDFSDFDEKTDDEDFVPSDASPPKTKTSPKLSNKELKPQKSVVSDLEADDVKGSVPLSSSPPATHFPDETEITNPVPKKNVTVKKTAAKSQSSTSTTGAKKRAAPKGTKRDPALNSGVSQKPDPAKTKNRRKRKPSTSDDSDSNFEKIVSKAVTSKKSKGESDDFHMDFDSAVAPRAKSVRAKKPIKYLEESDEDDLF
Procedure: Inhibition of TOP2A activity. Human TOP2A, kDNA, and assay buffers were obtained from TopoGEN (Buena Vista, CO). The synthesized compounds were screened for their TOP2A inhibitory activity by the intensity of DNA decatenation bands on a DNA gel when compared to the vehicle. Compounds were initially incubated with TOP2A (3 U/reaction) for 20 min at a 30 μM and 1.2% DMSO concentration in a 37° C. incubator without CO2.
The decatenation reaction was initiated immediately after by adding 2 mM ATP and 35 ng/reaction of kDNA, then incubated for 1 hour in a 37° C. water bath. The samples were loaded into a 0.8% agarose gel in 1× Tris-Borate-EDTA (TBE) at a 0.2 μg/mL ethidium bromide concentration and allowed to run in an electrophoretic chamber for 1 hour at 100V. Compounds with the highest inhibitory activity were selected for 2-fold serial dilution dose-response assays (58.6 nM-30 μM). The dose-response assays followed the same protocol with the exception of 4 U/reaction of TOP2A.
Inhibition studies of TOP2A and observed structure activity relationships (SAR). DNA catenation/decatenation or linking/unlinking of DNA is one of the main TOP2A functions essential for regulating DNA topology, and this is ATP dependent. […] Thus, as a starting point, the synthesized analogs were screened against TOP2A-dependent decatenation using 30 μM fixed concentrations, and the DNA from reactions were resolved on 0.8% agarose gels containing ethidium bromide.
Moreover, these studies provided interesting SAR, which shed light on the potential lead drug target binding interactions and affinity, biological activity, and future drug design optimization with this unique class of TOP2A inhibitors.
(§1) TOP2A decatenation assay. Human TOP2A, kDNA, and assay buffers were obtained from TopoGEN (Buena Vista, CO). The synthesized compounds were screened for their TOP2A inhibitory activity by the intensity of DNA decatenation bands on a DNA gel when compared to the vehicle. Compounds were initially incubated with TOP2A (3 U/reaction) for 20 min at a 30 μM and 1.2% DMSO concentration in a 37° C. incubator without CO2. The decatenation reaction was initiated immediately after by adding 2 mM ATP and 35 ng/reaction of kDNA, then incubated for 1 h in a 37° C. water bath. The samples were loaded into a 0.8% agarose gel in 1× Tris-Borate-EDTA (TBE) at a 0.2 μg/mL ethidium bromide concentration and allowed to run in an electrophoretic chamber for 1 h at 100V. Compounds with the highest inhibitory activity were selected for 2-fold serial dilution dose-response assays (58.6 nM-30 μM). The dose-response assays followed the same protocol with the exception of 4 U/reaction of TOP2A,
as §1, with “assays (53.6” for “assays (58.6”, “of TOP2A.” for “of TOP2A,”

[2] = test system: SW620 tumor organoids; test: Tumor organoid cytotoxicity / 3D cell viability (CellTox Green); type: cell-based; conditions: Homo sapiens, SW-620, Table 2, 72 hours
Procedure: Tumor organoid cytotoxicity. Fluorescence image-based method: The CellTox™ Green assay (Promega, Madison, WI, USA) was used with 3D tumor organoid to measure spheroid death. 0.1% CellTox™ Green was included in each well at the time of analogs dosing. 10% lysis solution was used as a cell death control. Fluorescence was measured at various time points with 465-510 nm excitation and 520-530 nm emission. Luminescence plate reader method: A 1:1 ratio of CellTiter-Glo™ 3D reagent (Promega) was added to 3D tumor organoid and the plate was shaken at 400 rpm for 30 min before luminescence was read with a PerkinElmer Envision plate reader.
Finally, SW620 tumor organoid cytotoxicity experiments were conducted using the CellTox Green assay, a fluorescence image-based method, to determine whether the inhibition of TCF transcription and effects on EMT are not the result of cytotoxicity. […] All of the analogs tested display IC50 dose response >30 μM and were higher compared to the IC50 values obtained during the downregulation of TCF transcription activity, and the EC50 values obtained for EMT modulation. Thus, the biological effects on TCF-transcription and EMT are not a result of tumor organoid cell death.
(§2) Tumor organoid cytotoxicity. SW620 tumor organoids were grown as previously outlined. CellTox™ Green-Express Cytotoxicity Assay (Promega, WI) solution was prepared per manufacturer's protocol. Briefly, organoids were treated for 72 h with CellTox™ Green Express (0.5×) reagent and various doses of TOP2A inhibitors over a range of 0-to-40 μM. Organoids were then imaged using the Opera Phenix HCS system (PerkinElmer, MA). CellTox™ Green Express was excited at 488 nm and emission was detected at 500-550 nm. Mean intensity of the whole well was utilized for calculating cytotoxicity with Lysis Buffer (Promega, WI, 0.025×) as the 0% viability control and 0.4% DMSO as the 100% viability control. Intensity values were normalized to these controls using GraphPad Prism 7.0 (GraphPad, CA).
as §2, with “CellTox™-Green-Express” for “CellTox™ Green-Express”, “(GraphPad.” for “(GraphPad,”

[3] = Water solubility (stated); type: physicochemical
[4] = test system: TOP2A-dependent TCF-transcription in SW620-TOP tumor organoids; test: TCF (TOPflash) reporter assay in 3D tumor organoids; type: cell-based; conditions: SW620-TOP tumor organoids, 72 hours; read-out: IC50 inhibition of TCF-transcription
Procedure: TCF reporter assay in 3D Tumor organoid. Stable engineered cells containing pCDH-TOPflash-luc-EF1-puro were used to generate tumor organoid arrayed in 96-well plates and treated for 72 hours. One-Glo™ luciferase reagent and CellTiter-Glo™ 3D cell viability reagent (Promega) were used to determine the TCF reporter activity in viable cells.
After characterizing 3 and 7 as TOP2A ATP-competitive inhibitors, these compounds were next tested for their ability to inhibit TOP2A-dependent TCF-transcription using the well characterized TOPflash (TOP) luminescent reporter, which was used to generate a stably transduced SW620-TOP reporter cells as described previously (Zhou, et al., Oncogene 2016, 35:4990-9). These cells were used to generate single 3D tumor organoids (700 μm in diameter) uniformly arrayed in 96-well plates, which mimic aspects of tumor function observed in vivo. […] Like neo, the mode of action of compounds 3 and 7 also results in significant antitumor activity (FIGS. 3E-3H). […] In other words, the activity of 3 and 7 is long lasting, suppressing CSC stemness and related tumorigenicity. EMT is a major driving force promoting tumor cell invasion and metastasis. […] Tumor organoids were dissociated, and viable cells were washed and plated into the top chamber of 96-well invasion plate coated with Matrigel and incubated for an additional 72 hours without adding any additional compound. […] Taken together, the biological activity of 3 and 7 is consistent with the activity of neo, inhibiting TOP2A-dependent TCF-transcription that in turn reverses EMT while inhibiting the associated tumorigenic properties of mCRC.
A similar trend in IC50 values was observed compared to TOP2A enzyme studies, further supporting our proposed mechanism of action as inhibition of TOP2A-dependent TCF-transcription.
3D Tumor organoid TOPflash reporter assay. […] 35(38): p. 4990-9.] were used to generate tumor organoids arrayed in 96-well plates and treated for 72 h with TOP2A inhibitors. One-Glo™ luciferase reagent and CellTiter-Glo™ 3D cell viability reagent (Promega, WI) were used to determine the TCF reporter activity in viable cells. Briefly, reagents were added to the spheroids at 1:1 ratio (v:v) and the plates were placed on an orbital shaker (300 rpm) for 10 min at room temperature before the luminescence was read with Envision plate reader (PerkinElmer, MA). TCF reporter activity was normalized to organoid viability and inhibitors treated conditions were normalized to DMSO treated controls.

[5] = read-out: IC50 TOP2A inhibition
[6] = Table 1, read-out: % Inhibition TOP2A (IC50 Values)

Compound	inhibition at 30 µM ([1]; Table 1) [%]	IC50 [1, 5]	TOP2A inhibition, result in words ([1]; decatenation screen at 30 μM)	IC50 [2] [µM]	IC50 [1, 6] [µM]	fold less potent compared to 53 (TOP2A IC50) ([1]; ratio of TOP2A IC50 values) [fold]	water solubility, in words [3]	IC50 [4] [µM]
CC(=O)Nc1ccc2c(-c3cc4ccccc4o3)ccnc2c1O [Analog 53]	100	0.24 µM and 0.2 µM	complete inhibitory activity against TOP2A	> 30	–	–	–	–
O=C(CCN1CCOCC1)Nc1ccc2c(-c3cc4ccccc4o3)ccnc2c1O [Analog 61]	83	4 µM	–	–	4.1	20	maintains water solubility	–
CC(=O)Nc1ccc2c(-c3cccs3)ccnc2c1O [Analog 57]	100	–	–	–	2.3	–	–	7
